Results reported in ChEMBL document CHEMBL3399945, “A class of sulfonamide carbonic anhydrase inhibitors with neuropathic pain modulating effects” (Bioorg Med Chem, 2015).

How the values were obtained:
Carbonic anhydrase 12 = Carbonic anhydrase 12 (Homo sapiens, UniProt O43570)
Description: Inhibition of human recombinant CA-12 after 15 mins by stopped-flow CO2 hydrase assay

Carbonic anhydrase 7 = Carbonic anhydrase 7 (Homo sapiens, UniProt P43166); experiment: Inhibition of human recombinant CA-7 after 15 mins by stopped-flow CO2 hydrase assay
Carbonic anhydrase 1 = Carbonic anhydrase 1 (Homo sapiens, UniProt P00915); experiment: Inhibition of human recombinant CA-1 after 15 mins by stopped-flow CO2 hydrase assay
Carbonic anhydrase 1, sequence (P00915 whole entry): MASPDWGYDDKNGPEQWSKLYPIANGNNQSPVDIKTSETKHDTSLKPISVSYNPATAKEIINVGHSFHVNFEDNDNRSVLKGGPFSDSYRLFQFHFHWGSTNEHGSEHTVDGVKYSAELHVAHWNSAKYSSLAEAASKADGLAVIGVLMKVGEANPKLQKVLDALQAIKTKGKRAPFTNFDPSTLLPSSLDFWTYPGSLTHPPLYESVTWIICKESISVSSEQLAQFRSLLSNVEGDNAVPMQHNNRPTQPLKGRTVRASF

Carbonic anhydrase 9 = Carbonic anhydrase 9 (Homo sapiens, UniProt Q16790)
Description: Inhibition of human recombinant CA-9 after 15 mins by stopped-flow CO2 hydrase assay

Carbonic anhydrase 2 = Carbonic anhydrase 2 (Homo sapiens, UniProt P00918); experiment: Inhibition of human recombinant CA-2 after 15 mins by stopped-flow CO2 hydrase assay
Mus musculus [1] = experiment: Inhibition of oxaliplatin-induced neuropathic pain in po dosed CD-1 mouse model assessed as latency to pain-related behavior after 15 to 45 mins by cold plate test; assay type: functional
Mus musculus [2] = experiment: Inhibition of oxaliplatin-induced neuropathic pain in po dosed CD-1 mouse model assessed as latency to pain-related behavior after 15 to 45 mins by cold plate test relative to acetazolamide; assay type: functional

Carbonic anhydrase 7, sequence (P43166 whole entry): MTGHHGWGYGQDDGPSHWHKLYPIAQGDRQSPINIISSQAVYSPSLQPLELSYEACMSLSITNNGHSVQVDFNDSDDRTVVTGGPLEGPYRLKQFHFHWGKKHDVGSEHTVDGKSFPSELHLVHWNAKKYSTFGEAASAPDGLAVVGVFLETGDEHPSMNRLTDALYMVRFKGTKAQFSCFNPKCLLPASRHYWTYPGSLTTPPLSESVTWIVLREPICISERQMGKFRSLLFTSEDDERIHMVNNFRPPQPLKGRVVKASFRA
Carbonic anhydrase 12, sequence (O43570 whole entry): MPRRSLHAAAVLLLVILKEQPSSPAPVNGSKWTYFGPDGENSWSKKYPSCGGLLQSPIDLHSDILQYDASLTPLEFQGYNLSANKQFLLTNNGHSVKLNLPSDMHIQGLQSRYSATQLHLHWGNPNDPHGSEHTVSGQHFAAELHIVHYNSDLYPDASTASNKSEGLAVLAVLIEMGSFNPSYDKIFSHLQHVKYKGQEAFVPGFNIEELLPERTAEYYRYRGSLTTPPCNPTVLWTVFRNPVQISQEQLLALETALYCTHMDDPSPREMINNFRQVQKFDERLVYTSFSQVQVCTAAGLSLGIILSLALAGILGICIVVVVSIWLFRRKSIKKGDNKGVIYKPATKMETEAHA

Ki (Carbonic anhydrase 12) [nM]	Ki (Carbonic anhydrase 7) [nM]	Ki (Carbonic anhydrase 1) [nM]	Ki (Carbonic anhydrase 9) [nM]	Ki (Carbonic anhydrase 2) [nM]	Compound	minimal effective dose (Mus musculus [1]; CD-1, po, read-out: MED) [mg/kg]	Ratio (Mus musculus [2])	inhibition (Mus musculus [1])
10.5	8.3	762	17.9	20.3	NS(=O)(=O)c1ccc(OCc2ccccc2)cc1	–	–	–
10.7	86.4	453	–	31.7	NS(=O)(=O)c1ccc(OCCN2CCOCC2)cc1	–	–	–
8	9.7	315	–	23.8	NS(=O)(=O)c1ccc(OCc2ccc(F)cc2)cc1	–	–	–
6.4	8.9	246	3.5	27.8	NS(=O)(=O)c1ccc(OCc2ccc(Br)cc2)cc1	–	–	–
7.9	10.1	780	13.2	12.8	CCCOc1ccc(S(N)(=O)=O)cc1	–	–	–
13.6	9.5	246	8.1	23.1	CCOc1ccc(S(N)(=O)=O)cc1	–	3	Dose-dependent effect
8.5	9.8	797	10.1	7.3	CCCCOc1ccc(S(N)(=O)=O)cc1	–	–	–
2.3	9.6	2340	–	28.7	C#CCOc1ccc(S(N)(=O)=O)cc1	–	–	–

Continued, compound first:

Compound	Ki (Carbonic anhydrase 12) [nM]	Ki (Carbonic anhydrase 7) [nM]	Ki (Carbonic anhydrase 1) [nM]	Ki (Carbonic anhydrase 9) [nM]	Ki (Carbonic anhydrase 2) [nM]	minimal effective dose (Mus musculus [1]; CD-1, po, read-out: MED) [mg/kg]	Ratio (Mus musculus [2])	inhibition (Mus musculus [1])
NS(=O)(=O)c1ccc(OCCc2ccccc2)cc1	1.2	9.4	207	2.4	7.8	–	–	–
NS(=O)(=O)c1ccc2c(c1)CCN2C(=O)C(F)(F)F	4.1	8.3	34.3	6.9	9.2	–	–	–
CC(=O)Nc1nnc(S(N)(=O)=O)s1 [ACETAZOLAMIDE]	–	–	–	–	–	30	–	–
NS(=O)(=O)c1nc2ccc(OCC#Cc3ccccc3)cc2s1	6.2	73.8	2420	10.3	52.1	–	–	–
C=CCOc1ccc(S(N)(=O)=O)cc1	6.8	9.9	–	13.5	–	–	–	–
NS(=O)(=O)c1ccc(OCC(c2ccccc2)c2ccccc2)cc1	50.4	70.7	5680	34.1	22.1	–	–	–
NS(=O)(=O)c1nc2ccc(OCc3ccccc3)cc2s1	2.5	7.7	48.1	–	7.6	–	–	–
NS(=O)(=O)c1ccc(OCC#Cc2ccccc2)cc1	33.8	97.2	3450	21.6	41.6	–	–	–
NS(=O)(=O)c1ccc(OCc2c(F)c(F)c(F)c(F)c2F)cc1	0.75	8.9	231	0.86	26	–	–	–
C#CCN(CC#C)c1ccc(S(N)(=O)=O)cc1	4.9	8.6	6400	9	1780	–	–	–
NS(=O)(=O)c1ccc(OCc2ccc([N+](=O)[O-])cc2)cc1	0.72	0.9	143	1.3	1.4	–	–	–
